# Literature values, collected in patent EP4741436A1, “POLYMERIZABLE COMPOSITION FOR OPTICAL MATERIAL, POLYMERIZABLE PREPOLYMER COMPOSITION FOR OPTICAL MATERIAL, CURED ARTICLE, AND METHOD FOR PRODUCING OPTICAL MATERIAL” (Mitsui Chemicals, Inc., priority 2023, dated 2025).
# Where two headings read alike, the source gives them in different places.
# Details: for pKa: organic acids and basic polymerization catalysts, values given in text
SMILES,pKa of Organic Acid (organic acid used in the composition of the column),pKa,pKa (listed as (±)-10-camphorsulfonic acid)
"CC1(C)C2CCC1(CS(=O)(=O)O)C(=O)C2 (racemic) [10-camphorsulfonic acid, (±)-10-camphorsulfonic acid]",1.17,1.2,1.17
O=S(=O)(O)c1ccccc1 [benzenesulfonic acid],,0.7,
CCS(=O)(=O)O [ethanesulfonic acid],,1.8,
C=CS(=O)(=O)O [vinylsulfonic acid],,-2.7,

# The remaining lines, values ahead:
pKa of Organic Acid (organic acid used in the composition of the column),pKa,pKa (listed as (±)-10-camphorsulfonic acid),SMILES
,1.9,,CCCCS(=O)(=O)O [butanesulfonic acid]
,1.9,,CCCS(=O)(=O)O [propanesulfonic acid]
